Source: US20110172147A1, “NEUROPEPTIDE-2 RECEPTOR (Y-2R) AGONISTS” (priority 2009, published 2011)
pEC50: −log10 of the molar value. *1 amine or outer side, *2 acyl side, *3 side chain or, on linkers, in order; H or OH if unused. Where a SMILES comes first, the peptide text is derived from it. [ ]: non-standard residue; d: D form. The star is where a group is joined. MeO(CH2CH2O)23CH2CH2CO = COCCOCCOCCOCCOCCOCCOCCOCCOCCOCCOCCOCCOCCOCCOCCOCCOCCOCCOCCOCCOCCOCCOCCOCCC(=O)*; X1 = O=C(Cn1cnc2ccc(N3CCN([*:1])CC3)cc2c1=O)[*:2]; Arachidoyl = CCCCCCCCCCCCCCCCCCCC(=O)*

Key:
Type in all cases: cell-based
[1] = biological target: T1, hNPY2R (Homo sapiens, UniProt P49146); test: cAMP Agonist Assay, HEK293/hNPY2R; design: expressed in transfected cells; host or cells: HEK293/hNPY2R (G418 selection)
T1 sequence (P49146 1-381): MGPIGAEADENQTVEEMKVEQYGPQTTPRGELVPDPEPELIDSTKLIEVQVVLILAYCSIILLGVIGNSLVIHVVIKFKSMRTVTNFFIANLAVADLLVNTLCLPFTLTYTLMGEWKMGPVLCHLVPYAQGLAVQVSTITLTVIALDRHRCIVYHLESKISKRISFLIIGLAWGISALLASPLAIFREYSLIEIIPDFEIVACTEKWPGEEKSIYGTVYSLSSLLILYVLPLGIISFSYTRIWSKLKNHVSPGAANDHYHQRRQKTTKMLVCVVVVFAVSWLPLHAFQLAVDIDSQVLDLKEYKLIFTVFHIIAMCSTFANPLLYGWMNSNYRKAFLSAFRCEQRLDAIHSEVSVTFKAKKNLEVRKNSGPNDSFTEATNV
Outline: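 Intracellular cAMP quantified by luminescent competitive ELISA after a 30 min room-temperature treatment of overnight-plated HEK293/hNPY2R cells with compound in medium containing 5 μM forskolin, 0.5 mM IBMX and 1.1% DMSO; four replicates per concentration.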

[2] = biological target: Y4R (Homo sapiens, UniProt P50391); test: CaFlux Assay (FLIPR), Y4R
[3] = biological target: T1, hNPY2R; test: CaFlux Assay (FLIPR), Y2R; design: expressed in transfected cells; host or cells: HEK-293 stably transfected with G protein chimera Gαqi9
Outline: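 Calcium flux read by FLIPR in HEK-293 clones co-expressing chimeric Gαqi9 and receptor; compounds in HBSS/20 mM HEPES/0.05% BSA. Baseline-subtracted peak fluorescence, monitored 100 s after addition, is reported relative to the positive control's maximal response.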

[4] = biological target: T2, Y5R (Homo sapiens, UniProt Q15761); test: CaFlux Assay (FLIPR), Y5R
T2 sequence (Q15761 1-445): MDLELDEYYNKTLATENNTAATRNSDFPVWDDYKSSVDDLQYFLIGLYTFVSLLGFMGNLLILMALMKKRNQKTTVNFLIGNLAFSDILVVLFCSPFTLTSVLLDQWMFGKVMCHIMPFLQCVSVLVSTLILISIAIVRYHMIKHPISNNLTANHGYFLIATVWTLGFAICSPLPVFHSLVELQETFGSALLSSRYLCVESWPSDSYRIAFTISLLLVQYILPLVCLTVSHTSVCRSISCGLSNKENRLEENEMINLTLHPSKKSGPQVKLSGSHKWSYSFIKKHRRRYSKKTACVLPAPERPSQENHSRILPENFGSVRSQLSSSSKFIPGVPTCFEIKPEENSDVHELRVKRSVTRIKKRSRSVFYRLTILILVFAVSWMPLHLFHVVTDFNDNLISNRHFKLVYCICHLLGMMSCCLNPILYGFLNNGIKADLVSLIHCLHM

[5] = biological target: T3, Y1R (Homo sapiens, UniProt P25929); test: CaFlux Assay (FLIPR), Y1R
T3 sequence (P25929 1-384): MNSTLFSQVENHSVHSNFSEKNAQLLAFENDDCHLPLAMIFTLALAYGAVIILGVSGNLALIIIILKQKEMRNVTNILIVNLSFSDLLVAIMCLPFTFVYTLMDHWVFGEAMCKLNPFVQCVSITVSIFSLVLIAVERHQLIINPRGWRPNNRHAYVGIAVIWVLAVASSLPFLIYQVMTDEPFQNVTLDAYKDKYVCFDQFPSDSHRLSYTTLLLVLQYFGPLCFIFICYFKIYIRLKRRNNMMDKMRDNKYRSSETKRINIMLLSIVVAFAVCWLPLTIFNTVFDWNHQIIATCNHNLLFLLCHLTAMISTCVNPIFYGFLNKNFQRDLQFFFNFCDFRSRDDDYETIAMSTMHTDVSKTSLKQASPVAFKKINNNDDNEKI

Chain of Y4R (P50391 whole entry): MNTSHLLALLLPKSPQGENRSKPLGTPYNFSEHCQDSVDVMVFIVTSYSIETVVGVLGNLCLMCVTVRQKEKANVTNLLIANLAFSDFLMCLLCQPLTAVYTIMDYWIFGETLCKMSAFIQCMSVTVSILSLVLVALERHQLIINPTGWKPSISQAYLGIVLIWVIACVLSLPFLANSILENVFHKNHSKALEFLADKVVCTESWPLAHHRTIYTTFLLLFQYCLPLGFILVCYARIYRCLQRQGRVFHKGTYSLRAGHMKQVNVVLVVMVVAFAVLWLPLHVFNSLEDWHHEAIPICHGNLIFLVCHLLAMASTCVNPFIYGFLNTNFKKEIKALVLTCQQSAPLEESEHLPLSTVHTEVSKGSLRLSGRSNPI

SMILES	pEC50 [1]	pEC50 [2]	pEC50 [3]	pEC50 [4]	pEC50 [5]
CCCCCCCCCCCCCC(=O)NCCCCCC(=O)N[C@H](C(=O)N[C@@H](CCCCNC(=O)CCOCCOCCOCCOCCOCCOCCOCCOCCOCCOCCOCCOCCOCCOCCOCCOCCOCCOCCOCCOCCOCCOCCOCCOC)C(=O)N1CCN(c2ccc3ncn(CC(=O)N[C@@H](CCCNC(N)=O)C(=O)N[C@@H](Cc4c[nH]cn4)C(=O)N[C@@H](Cc4ccc(O)cc4)C(=O)N[C@@H](CC(C)C)C(=O)N[C@@H](CC(N)=O)C(=O)N[C@@H](Cc4c[nH]c5ccccc45)C(=O)N[C@H](C(=O)N[C@H](C(=O)N[C@@H](CCCNC(=N)N)C(=O)N[C@@H](CCC(N)=O)C(=O)N(C)[C@@H](CCCNC(=N)N)C(=O)N[C@@H](Cc4ccc(O)cc4)C(N)=O)[C@@H](C)O)C(C)C)c(=O)c3c2)CC1)[C@@H](C)CC [Example 37]	8.55	< 5.22	9.80	5.37	< 5.22
CCCCCCCCCCCCCCCCCCCC(=O)N[C@@H](CCC(=O)O)C(=O)N[C@@H](CCC(=O)O)C(=O)N[C@H](C(=O)N[C@@H](CCCCNC(=O)CCOCCOCCOCCOCCOCCOCCOCCOC)C(=O)N1CCN(c2ccc3ncn(CC(=O)N[C@@H](CCCNC(N)=O)C(=O)N[C@@H](Cc4c[nH]cn4)C(=O)N[C@@H](Cc4ccc(O)cc4)C(=O)N[C@@H](CC(C)C)C(=O)N[C@@H](CC(N)=O)C(=O)N[C@@H](Cc4c[nH]c5ccccc45)C(=O)N[C@H](C(=O)N[C@H](C(=O)N[C@@H](CCCNC(=N)N)C(=O)N[C@@H](CCC(N)=O)C(=O)N(C)[C@@H](CCCNC(=N)N)C(=O)N[C@@H](Cc4ccc(O)cc4)C(N)=O)[C@@H](C)O)C(C)C)c(=O)c3c2)CC1)[C@@H](C)CC [Example 44]	9.37	< 5.22	9.50	< 5.22	< 5.22
CCCCCCCCCCCCCCCCCCCC(=O)N[C@@H](CCC(=O)O)C(=O)N[C@@H](CCC(=O)O)C(=O)N[C@H](C(=O)N[C@@H](CCCCNC(=O)CCOCCOCCOCCOCCOCCOCCOCCOCCOCCOCCOCCOCCOCCOCCOCCOCCOCCOCCOCCOCCOCCOCCOCCOC)C(=O)N1CCN(c2ccc3ncn(CC(=O)N[C@@H](CCCNC(=N)N)C(=O)N[C@@H](Cc4c[nH]cn4)C(=O)N[C@@H](Cc4ccc(O)cc4)C(=O)N[C@@H](Cc4c[nH]cn4)C(=O)N[C@@H](CC(N)=O)C(=O)N[C@@H](Cc4c[nH]c5ccccc45)C(=O)N[C@H](C(=O)N[C@H](C(=O)N[C@@H](CCCNC(=N)N)C(=O)N[C@@H](CCC(N)=O)C(=O)N[C@@H](CCCNC(=N)N)C(=O)N[C@@H](Cc4ccc(O)cc4)C(N)=O)[C@@H](C)O)C(C)C)c(=O)c3c2)CC1)[C@@H](C)CC [Example 57] (Arachidoyl-EEIK(MeO(CH2CH2O)23CH2CH2CO)[X1]RHYHNWVTRQRY-NH2)	10.96	< 5.22	10.80	8.25	< 5.22
CCCCCCCCCCCCCCCCCCCC(=O)N[C@@H](CCC(=O)N[C@@H](CCC(=O)N[C@H](C(=O)N[C@@H](CCCCNC(=O)CCOCCOCCOCCOCCOCCOCCOCCOCCOCCOCCOCCOCCOCCOCCOCCOC)C(=O)N1CCN(c2ccc3ncn(CC(=O)N[C@@H](CCCNC(=N)N)C(=O)N[C@@H](Cc4c[nH]cn4)C(=O)N[C@@H](Cc4ccc(O)cc4)C(=O)N[C@@H](CC(C)C)C(=O)N[C@@H](CC(N)=O)C(=O)N[C@@H](Cc4c[nH]c5ccccc45)C(=O)N[C@H](C(=O)N[C@H](C(=O)N[C@@H](CCCNC(=N)N)C(=O)N[C@@H](CCC(N)=O)C(=O)N(C)[C@@H](CCCNC(=N)N)C(=O)N[C@@H](Cc4ccc(O)cc4)C(N)=O)[C@@H](C)O)C(C)C)c(=O)c3c2)CC1)[C@@H](C)CC)C(=O)O)C(=O)O [Example 59]	9.54	< 5.05	9.55	5.41	< 5.05
CC[C@H](C)[C@H](NC(=O)CCCCCNC(=O)CCOCCOCCOCCOCCOCCOCCOCCOCCOCCOCCOCCOC)C(=O)N[C@@H](CCCCN)C(=O)N1CCN(c2ccc3ncn(CC(=O)N[C@@H](CCCNC(=N)N)C(=O)N[C@@H](Cc4c[nH]cn4)C(=O)N[C@@H](Cc4ccc(O)cc4)C(=O)N[C@@H](CC(C)C)C(=O)N[C@@H](CC(N)=O)C(=O)N[C@@H](Cc4c[nH]c5ccccc45)C(=O)N[C@H](C(=O)N[C@H](C(=O)N[C@@H](CCCNC(=N)N)C(=O)N[C@@H](CCC(N)=O)C(=O)N(C)[C@@H](CCCNC(=N)N)C(=O)N[C@@H](Cc4ccc(O)cc4)C(N)=O)[C@@H](C)O)C(C)C)c(=O)c3c2)CC1 [Example 18]	9.05	< 5.22	9.45	< 5.22	< 5.22
CCCCCCCCCCCCCCCC(=O)NCCCCCC(=O)NCCCC[C@H](NC(=O)[C@@H](NC(=O)CCOCCOCCOCCOCCOCCOCCOCCOCCOCCOCCOCCOC)[C@@H](C)CC)C(=O)N1CCN(c2ccc3ncn(CC(=O)N[C@@H](CCCNC(=N)N)C(=O)N[C@@H](Cc4c[nH]cn4)C(=O)N[C@@H](Cc4ccc(O)cc4)C(=O)N[C@@H](CC(C)C)C(=O)N[C@@H](CC(N)=O)C(=O)N[C@@H](Cc4c[nH]c5ccccc45)C(=O)N[C@H](C(=O)N[C@H](C(=O)N[C@@H](CCCNC(=N)N)C(=O)N[C@@H](CCC(N)=O)C(=O)N(C)[C@@H](CCCNC(=N)N)C(=O)N[C@@H](Cc4ccc(O)cc4)C(N)=O)[C@@H](C)O)C(C)C)c(=O)c3c2)CC1 [Example 9]	10.10	< 5.30	10.60	5.99	< 5.30
CCCCCCCCCCCCCCCC(=O)NCCCCCC(=O)NCCOCCOCCOCCOCCOCCOCCOCCOCCOCCOCCOCCOCCOCCOCCOCCOCCOCCOCCOCCOCCOCCOCCOCCOCCC(=O)N[C@H](C(=O)N[C@@H](CCCCN)C(=O)N1CCN(c2ccc3ncn(CC(=O)N[C@@H](CCCNC(=N)N)C(=O)N[C@@H](Cc4c[nH]cn4)C(=O)N[C@@H](Cc4ccc(O)cc4)C(=O)N[C@@H](CC(C)C)C(=O)N[C@@H](CC(N)=O)C(=O)N[C@@H](Cc4c[nH]c5ccccc45)C(=O)N[C@H](C(=O)N[C@H](C(=O)N[C@@H](CCCNC(=N)N)C(=O)N[C@@H](CCC(N)=O)C(=O)N(C)[C@@H](CCCNC(=N)N)C(=O)N[C@@H](Cc4ccc(O)cc4)C(N)=O)[C@@H](C)O)C(C)C)c(=O)c3c2)CC1)[C@@H](C)CC [Example 38]	10.15	< 5.22	10.00	5.86	< 5.22
CCCCCCCCCCCCCCCCCCCC(=O)N[C@@H](CCC(=O)N[C@@H](CCC(=O)N[C@H](C(=O)N[C@@H](CCCCNC(=O)CCOCCOCCOCCOCCOCCOCCOCCOCCOCCOCCOCCOC)C(=O)N1CCN(c2ccc3ncn(CC(=O)N[C@@H](CCCNC(=N)N)C(=O)N[C@@H](Cc4c[nH]cn4)C(=O)N[C@@H](Cc4ccc(O)cc4)C(=O)N[C@@H](CC(C)C)C(=O)N[C@@H](CC(N)=O)C(=O)N[C@@H](Cc4c[nH]c5ccccc45)C(=O)N[C@H](C(=O)N[C@H](C(=O)N[C@@H](CCCNC(=N)N)C(=O)N[C@@H](CCC(N)=O)C(=O)N(C)[C@@H](CCCNC(=N)N)C(=O)N[C@@H](Cc4ccc(O)cc4)C(N)=O)[C@@H](C)O)C(C)C)c(=O)c3c2)CC1)[C@@H](C)CC)C(=O)O)C(=O)O [Example 58]	9.68	< 5.05	9.94	5.38	< 5.05
